Experimental data taken from patent publication US10966951B2, “Compositions and methods for lowering triglycerides in a subject having reduced kidney function” (Amarin Pharmaceuticals Ireland Limited, priority 2017, dated 2021).

Legend:
Format in all cases: in vivo, human
[1] = Essential fatty acid parameters in RBC, 6-week AAMI study (Example 2)
Procedure: (§1) A single-center, 6-week, double-blind, randomized, parallel-group, placebo-controlled, dose-ranging pilot study was performed to evaluate the efficacy, tolerability, and safety of >96% E-EPA in subjects with subjective and objective memory impairment according to generally accepted criteria for Age-Associated Memory Impairment (“AAMI”). The primary objective of the study was to determine the effect of >96% E-EPA 1 g, 2 g, and 4 g daily, compared to placebo, on cognitive performance in subjects with AAMI.
(§2) Ninety-four subjects were randomized into one of six groups: 1 g E-EPA daily (n=23), 2 g E-EPA daily (n=24), 4 g E-EPA daily (n=24), 1 g placebo daily (n=7), 2 g placebo daily (n=8), and 4 g placebo daily (n=8). E-EPA was provided as 500 mg soft gel capsules containing >96% E-EPA and 0.2% dl-α-tocopherol as an antioxidant. Placebo capsules contained 467 mg of liquid paraffin and 0.2% dl-α-tocopherol. Ninety-one subjects completed the study. Two subjects in the 2 g E-EPA group and one subject in the 2 g placebo group discontinued the study.
(§3) Blood samples (10 mL) were collected at Visit 1 (screening) and at Visits 4, 5, and 6. Analysis was performed by MSR Lipid Analysis, Scottish Crop Research Institute, Dundee, UK. The screening sample acted as baseline for the EFA measurements. Lipid was extracted from plasma, serum, and RBC suspensions and converted into fatty acid methyl esters which were analyzed by gas chromatography to give fatty acid profiles as micrograms fatty acid per gram of sample ([…]) and normalized area percent.
(§4) RBC and plasma EFA data were collected at baseline, Day 14, 28, and 42 and summarized by visit for each treatment group. Change from baseline and percent change from baseline were also summarized. ANCOVA comparison of E-EPA dose groups and E-EPA versus placebo was performed.

[2] = Essential fatty acid parameters in plasma, 6-week AAMI study (Example 2)
Procedure: as §1, §2, §3, §4

[3] = system: patients with reduced kidney function (eGFR<90 mL/min/1.73 m^2) and diabetes mellitus; assay: Post-hoc ANCHOR analysis, reduced kidney function and diabetes mellitus (Example 5); settings: 4 g/day
Procedure: CVD-related (e.g., atherogenic) parameters were analyzed in a post-hoc study of 198 patients from the multi-center, placebo-controlled, randomized double-blind, 12-week study described in Example 1. These 198 patients have reduced kidney function (e.g., eGFR<90 mL/min/1.73 m^2 for ≥3 months) and diabetes mellitus.
98 patients were randomized to E-EPA and 100 patients were randomized to placebo. In total, atherogenic parameters were analyzed in all 198 patients, 56% of which were male and 97% of which were white. The mean age of the 198 patients was 63 years old.
The primary objective of this post-hoc study was to determine if and how 4 g of daily of >96% E-EPA, compared to placebo, affects patients with reduced kidney function, diabetes mellitus, and high triglyceride levels. The secondary objective was to determine if and how 4 g daily >96% E-EPA, compared to placebo, affected CVD-related parameters in patients having a high risk for CVD and fasting TG levels 200 mg/dL and <500 mg/dL, despite treatment to LDL-C goal on statin therapy. These CVD-parameters include lipid levels, lipoprotein levels, and inflammatory markers, such as TC, LDL-C, HDL-C, vLDL-C, vLDL-TG, RLP-C, non-HDL-C, Apo B, Apo C-III, Lp-PLA, hsCRP, and ox-LDL, and in plasma and RBC EPA concentration. CVD-parameters were analyzed for median difference in percent change from baseline to week 12 in subjects receiving 4 g/day of E-EPA and those receiving the placebo.
The median difference in lipid/lipoprotein, apolipoprotein, and inflammatory parameters were determined from baseline to week 12 for 4/g day of E-EPA compared to placebo.

EPA, DPAn-3, and EPA/AA ratio values from baseline to Day 42 ([2]; plasma and RBC, 1, 2, and 4 g treatment groups): increased substantially
albumin after 12 weeks ([3]; after 12 weeks): 4.5 g/dL
serum creatinine after 12 weeks ([3]; after 12 weeks): 0.9 mg/dL
albumin before treatment ([3]; before the 12 weeks): 4.5 g/dL
eGFR before treatment ([3]; before the 12 weeks): 75.4 mL/min/1.73 m^2
serum creatinine before treatment ([3]; before the 12 weeks): 0.9 mg/dL
Structure (SMILES): CC/C=C\C/C=C\C/C=C\C/C=C\C/C=C\CCCC(=O)OCC [E-EPA, ethyl eicosapentaenoate]
AA Mean change from Baseline, Mean (SD) ([1]; 1 g daily, Day 14): −8.1 (21.95) μg/g
DGLA Mean change from Baseline, Mean (SD) ([1]; 1 g daily, Day 14): −2.7 (3.82) μg/g
DHA Mean change from Baseline, Mean (SD) ([1]; 1 g daily, Day 14): −4.6 (9.76) μg/g
EPA/AA Mean change from Baseline, Mean (SD) ([1]; 1 g daily, Day 14): 0.1 (0.04)
AA Mean change from Baseline, Mean (SD) ([1]; 1 g daily, Day 28): −17.0 (20.69) μg/g
DGLA Mean change from Baseline, Mean (SD) ([1]; 1 g daily, Day 28): −3.8 (3.31) μg/g
DHA Mean change from Baseline, Mean (SD) ([1]; 1 g daily, Day 28): −6.4 (11.57) μg/g
EPA/AA Mean change from Baseline, Mean (SD) ([1]; 1 g daily, Day 28): 0.1 (0.05)
DGLA Mean change from Baseline, Mean (SD) ([1]; 1 g daily, Day 42): −3.5 (4.51) μg/g
DHA Mean change from Baseline, Mean (SD) ([1]; 1 g daily, Day 42): −7.0 (12.20) μg/g
EPA/AA Mean change from Baseline, Mean (SD) ([1]; 1 g daily, Day 42): 0.1 (0.06)
DGLA Baseline Mean (SD) ([1]; 1 g daily): 23.0 (5.19) μg/g
EPA/AA Baseline Mean (SD) ([1]; 1 g daily): 0.1 (0.07)
AA LS Mean, 1 g versus 4 g ([1]; 1 g versus 4 g): 8.4 µg/g
DGLA LS Mean, 1 g versus 4 g ([1]; 1 g versus 4 g): 1.5 µg/g
DHA LS Mean, 1 g versus 4 g ([1]; 1 g versus 4 g): 1.0 µg/g
EPA/AA LS Mean, 1 g versus 4 g ([1]; 1 g versus 4 g): −0.18
AA Mean change from Baseline, Mean (SD) ([1]; 2 g daily, Day 14): −3.1 (25.84) μg/g
DGLA Mean change from Baseline, Mean (SD) ([1]; 2 g daily, Day 14): −2.6 (3.54) μg/g
DHA Mean change from Baseline, Mean (SD) ([1]; 2 g daily, Day 14): −2.0 (9.46) μg/g
EPA/AA Mean change from Baseline, Mean (SD) ([1]; 2 g daily, Day 14): 0.2 (0.04)
DGLA Mean change from Baseline, Mean (SD) ([1]; 2 g daily, Day 28): −4.5 (3.58) μg/g
DHA Mean change from Baseline, Mean (SD) ([1]; 2 g daily, Day 28): −6.2 (9.34) μg/g
EPA/AA Mean change from Baseline, Mean (SD) ([1]; 2 g daily, Day 28): 0.02 (0.06)
DGLA Mean change from Baseline, Mean (SD) ([1]; 2 g daily, Day 42): −5.3 (3.65) μg/g
DHA Mean change from Baseline, Mean (SD) ([1]; 2 g daily, Day 42): −6.3 (9.42) μg/g
EPA/AA Mean change from Baseline, Mean (SD) ([1]; 2 g daily, Day 42): 0.3 (0.06)
DGLA Baseline Mean (SD) ([1]; 2 g daily): 23.0 (5.76) μg/g
EPA/AA Baseline Mean (SD) ([1]; 2 g daily): 0.1 (0.06)
AA LS Mean, 2 g versus 4 g ([1]; 2 g versus 4 g): 9.8 µg/g
DGLA LS Mean, 2 g versus 4 g ([1]; 2 g versus 4 g): 1.5 µg/g
DHA LS Mean, 2 g versus 4 g ([1]; 2 g versus 4 g): 1.0 µg/g
EPA/AA LS Mean, 2 g versus 4 g ([1]; 2 g versus 4 g): −0.11
DGLA Mean change from Baseline, Mean (SD) ([1]; 4 g daily, Day 14): −5.3 (4.10) μg/g
DHA Mean change from Baseline, Mean (SD) ([1]; 4 g daily, Day 14): −6.9 (9.13) μg/g
EPA/AA Mean change from Baseline, Mean (SD) ([1]; 4 g daily, Day 14): 0.3 (0.07)
DGLA Mean change from Baseline, Mean (SD) ([1]; 4 g daily, Day 28): −7.1 (4.63) μg/g
DHA Mean change from Baseline, Mean (SD) ([1]; 4 g daily, Day 28): −8.7 (11.63) μg/g
EPA/AA Mean change from Baseline, Mean (SD) ([1]; 4 g daily, Day 28): 0.4 (0.11)
DGLA Mean change from Baseline, Mean (SD) ([1]; 4 g daily, Day 42): −8.0 (4.98) μg/g
EPA/AA Mean change from Baseline, Mean (SD) ([1]; 4 g daily, Day 42): 0.4 (0.14)
DGLA Baseline Mean (SD) ([1]; 4 g daily): 24.0 (5.77) μg/g
EPA/AA Baseline Mean (SD) ([1]; 4 g daily): 0.1 (0.04)
AA Mean change from Baseline, Mean (SD) ([2]; plasma, 1 g daily, Day 14): −9.7 (22.20) μg/g
DHA Mean change from Baseline, Mean (SD) ([2]; plasma, 1 g daily, Day 14): −6.4 (13.30) μg/g
EPA/AA Mean change from Baseline, Mean (SD) ([2]; plasma, 1 g daily, Day 14): 0.3 (0.4)
DHA Mean change from Baseline, Mean (SD) ([2]; plasma, 1 g daily, Day 28): −6.6 (15.53) μg/g
EPA/AA Mean change from Baseline, Mean (SD) ([2]; plasma, 1 g daily, Day 28): 0.3 (0.20)
AA Mean change from Baseline, Mean (SD) ([2]; plasma, 1 g daily, Day 42): −8.7 (31.35) μg/g
DGLA Mean change from Baseline, Mean (SD) ([2]; plasma, 1 g daily, Day 42): −9.4 (9.41) μg/g
DHA Mean change from Baseline, Mean (SD) ([2]; plasma, 1 g daily, Day 42): −5.4 (18.17) μg/g
EPA/AA Mean change from Baseline, Mean (SD) ([2]; plasma, 1 g daily, Day 42): 0.3 (0.24)
EPA/AA Baseline Mean (SD) ([2]; plasma, 1 g daily): 0.2 (0.14)
AA LS Mean, 1 g versus 4 g ([2]; plasma, 1 g versus 4 g): 4.2 µg/g
DGLA LS Mean, 1 g versus 4 g ([2]; plasma, 1 g versus 4 g): 3.7 µg/g
DHA LS Mean, 1 g versus 4 g ([2]; plasma, 1 g versus 4 g): -0.8 µg/g
EPA/AA LS Mean, 1 g versus 4 g ([2]; plasma, 1 g versus 4 g): −0.66
DHA Mean change from Baseline, Mean (SD) ([2]; plasma, 2 g daily, Day 14): −5.4 (14.29) μg/g
EPA/AA Mean change from Baseline, Mean (SD) ([2]; plasma, 2 g daily, Day 14): 0.6 (0.23)
DHA Mean change from Baseline, Mean (SD) ([2]; plasma, 2 g daily, Day 28): −8.1 (15.82) μg/g
EPA/AA Mean change from Baseline, Mean (SD) ([2]; plasma, 2 g daily, Day 28): 0.8 (0.35)
DHA Mean change from Baseline, Mean (SD) ([2]; plasma, 2 g daily, Day 42): −6.0 (16.69) μg/g
EPA/AA Mean change from Baseline, Mean (SD) ([2]; plasma, 2 g daily, Day 42): 0.7 (0.29)
EPA/AA Baseline Mean (SD) ([2]; plasma, 2 g daily): 0.2 (0.12)
DGLA LS Mean, 2 g versus 4 g ([2]; plasma, 2 g versus 4 g): 2.5 µg/g
DHA LS Mean, 2 g versus 4 g ([2]; plasma, 2 g versus 4 g): 1.5 µg/g
EPA/AA LS Mean, 2 g versus 4 g ([2]; plasma, 2 g versus 4 g): −0.41
EPA/AA Mean change from Baseline, Mean (SD) ([2]; plasma, 4 g daily, Day 14): 1.1 (0.28)
EPA/AA Mean change from Baseline, Mean (SD) ([2]; plasma, 4 g daily, Day 28): 1.3 (0.42)
EPA/AA Mean change from Baseline, Mean (SD) ([2]; plasma, 4 g daily, Day 42): 1.3 (0.45)
EPA/AA Baseline Mean (SD) ([2]; plasma, 4 g daily): 0.2 (0.07)
